Results on eleven molecules are retold here after ChEMBL document CHEMBL1156210, “Discovery of tertiary sulfonamides as potent liver X receptor antagonists” (J Med Chem, 2010).

Calls of active or inactive are those of the source. No cut-off for these calls is given here.

Assay [1] has as its target T1, Oxysterols receptor LXR-beta (Homo sapiens, UniProt P55055). Put plainly: Displacement of [N-methyl-3H]T1317 from human biotinylated LXRbeta LBD after 3 hrs by LEAD seeker binding assay.
In assay [2] the target is T1, Oxysterols receptor LXR-beta. Put plainly: Agonist activity at LXRbeta ligand binding domain-mediated transcriptional activity in african green monkey CV1 cells co-transfected with Gal4-SRC1 by luciferase reporter assay. The assay is classed as cell-based, CV-1. In general terms: In a reporter assay the amount or activity of a reporter protein is the signal.
The target of assay [3] is T2, Oxysterols receptor LXR-alpha (Homo sapiens, UniProt Q13133).
T2 sequence (Q13133 whole entry): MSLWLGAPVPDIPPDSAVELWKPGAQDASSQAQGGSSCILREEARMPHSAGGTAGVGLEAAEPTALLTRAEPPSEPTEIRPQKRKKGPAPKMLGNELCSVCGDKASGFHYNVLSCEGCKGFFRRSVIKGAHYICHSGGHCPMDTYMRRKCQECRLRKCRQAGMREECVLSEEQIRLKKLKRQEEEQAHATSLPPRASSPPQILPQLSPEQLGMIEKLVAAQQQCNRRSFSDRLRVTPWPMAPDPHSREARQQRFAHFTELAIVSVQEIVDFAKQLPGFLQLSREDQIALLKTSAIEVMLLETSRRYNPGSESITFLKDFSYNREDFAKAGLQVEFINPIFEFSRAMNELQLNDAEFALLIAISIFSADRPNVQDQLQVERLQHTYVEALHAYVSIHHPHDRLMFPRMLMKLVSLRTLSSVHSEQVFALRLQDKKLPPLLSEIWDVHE
Put plainly: (§1) Agonist activity at LXRalpha ligand binding domain-mediated transcriptional activity in african green monkey CV1 cells co-transfected with Gal4-SRC1 by luciferase reporter assay. It counts as cell-based, CV-1.

Assay [4] concerns the target T3, Oxysterols receptor LXR-alpha (Homo sapiens) (UniProt Q13133).
T3 sequence (whole entry): T2 sequence (Q13133 whole entry)
Described as §1. The assay is classed as cell-based. The following applies: CV-1.

Assay [5] has as its system HepG2. Put plainly: Inhibition of GW-3965-induced SREBP-1c expression in human HepG2 cells. It counts as functional, cell-based.
Assay [6] has as its system THP-1. Put plainly: Inhibition of ABCA1 expression in human THP1 cells. It counts as functional, cell-based.
Assay [7] has as its system HepG2. Put plainly: Inhibition of SREBP-1c expression in human HepG2 cells. It counts as functional, cell-based.
The target of assay [8] is T1, Oxysterols receptor LXR-beta. The conditions noted are these: CV-1.
Assay [9] relates to HepG2. Put plainly: Inhibition of basal triglyceride level in human HepG2 cells.

T1 sequence (P55055 whole entry, the tested form may be a part): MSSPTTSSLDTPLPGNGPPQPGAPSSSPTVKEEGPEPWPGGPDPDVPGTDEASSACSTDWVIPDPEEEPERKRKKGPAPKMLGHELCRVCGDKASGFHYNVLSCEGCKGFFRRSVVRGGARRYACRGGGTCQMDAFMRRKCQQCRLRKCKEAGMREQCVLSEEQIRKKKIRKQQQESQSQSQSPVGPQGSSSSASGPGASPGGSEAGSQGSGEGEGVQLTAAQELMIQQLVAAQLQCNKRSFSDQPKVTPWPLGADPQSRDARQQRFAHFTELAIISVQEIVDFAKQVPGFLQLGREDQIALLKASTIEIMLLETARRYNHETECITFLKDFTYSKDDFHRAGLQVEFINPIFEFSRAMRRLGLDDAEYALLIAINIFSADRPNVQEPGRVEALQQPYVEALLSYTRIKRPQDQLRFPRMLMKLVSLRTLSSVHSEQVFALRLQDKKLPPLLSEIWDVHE

In assay [1], `O=C(O)Cc1cccc(OCCCN(Cc2cccc(C(F)(F)F)c2Cl)CC(c2ccccc2)c2ccccc2)c1` showed an IC50 of 19.9 nM. The molecule further had an EC50 in assay [2] of 100 nM.

For `Fc1ccc(CN(Cc2ccccc2)Cc2ccc(-c3ccccc3)cc2)c(Cl)c1`, the IC50 in assay [1] is over 10000 nM.

`CS(=O)(=O)c1cccc(-c2ccc(CN(Cc3c(F)cccc3Cl)S(=O)(=O)c3ccccc3)cc2)c1` had a half-maximal effective concentration (EC50) in assay [3] of 6.31 nM.

The molecule `Cc1ccccc1S(=O)(=O)N(Cc1ccc(-c2cccc(S(C)(=O)=O)c2)cc1)Cc1c(F)cccc1Cl` gave an EC50 in assay [3] of 12.6 nM.

The molecule `Cc1cc(C)c(S(=O)(=O)N(Cc2ccc(-c3cccc(S(C)(=O)=O)c3)cc2)Cc2ccc(F)cc2Cl)c(C)c1` gave a concentration for a half-maximal effect (EC50) in [3] of 126 nM.

For the molecule `Cc1cc(C)c(S(=O)(=O)N(Cc2ccc(-c3cccc(S(C)(=O)=O)c3)cc2)Cc2ccc(C(F)(F)F)o2)c(C)c1`, the results for the IC50 in assay [1], in assay [6] and in assay [7] were 31.6 nM, under 100 nM and under 100 nM, respectively. Further, the pEC50 result in assay [4] and in [8] was “inactive” in each case. Moreover, in [5], the Activity entry is “Dose-dependent effect”. Moreover, the outcome in [9] was Active.

Regarding `Cn1cnc(S(=O)(=O)N(Cc2ccc(-c3cccc(S(C)(=O)=O)c3)cc2)Cc2c(F)cccc2Cl)c1`, the half-maximal effective concentration (EC50) in [3] is 79.4 nM.

On to `CS(=O)(=O)c1cccc(-c2ccc(CN(Cc3c(F)cccc3Cl)S(=O)(=O)C3CC3)cc2)c1`, for which, in [3], a half-maximal response (EC50) required 100 nM.

As for `Cc1cc(C)c(S(=O)(=O)N(Cc2ccc(-c3cccc(S(C)(=O)=O)c3)cc2)Cc2c(F)cccc2Cl)c(C)c1`, in assay [3], the half-maximal effective concentration (EC50) was 79.4 nM.

In assay [3], `CS(=O)(=O)c1cccc(-c2ccc(CN(Cc3ccc(F)cc3Cl)S(=O)(=O)c3ccccc3)cc2)c1` gave a 50% effective concentration (EC50) of 10 nM.

`O=C(c1ccccc1)N(Cc1ccc(-c2ccccc2)cc1)Cc1ccc(F)cc1Cl` gave an IC50 in assay [1] of over 10000 nM.

By IC50 is commonly meant the concentration at which inhibition is half-maximal. As usually defined, the EC50 is the concentration at which the effect is half-maximal.
